Patent US12497393B2, “β-lactam compound, use thereof and preparation method therefor” (priority 2020, dated 2025)
Where two headings read alike, the source gives them in different places.

How the values were obtained:
Assay in all cases: Antibacterial activity MIC assay (two-fold dilution agar plating)
Format in all cases: cell-based
[1] = system: Stenotrophomonas maltophilia; conditions: Stenotrophomonas maltophilia ATCC 13636; for MIC: ATCC13636, read-out: Minimal Inhibitory Concentration (MIC)
Procedure: (§1) Antibacterial Activity-Evaluating Method (MIC Assay)
(§2) In this study, the compounds of the present invention were tested for their antibacterial activities by using two-fold dilution agar plating method and Denley Multipoint Inoculator A400 according to the guidelines of the CLSI/NCCLS standard. The tested strains were amplified by hydrolyzed casein peptone (Mueller-Hinton Agar) broth and Brain and Heart Infusion. The strains used in this study were bacterial strains that were purchased from ATCC or clinically isolated in Chinese hospitals. Aztreonam, polymyxin or levofloxacin was used as positive control. The drugs were diluted with hydrolyzed casein peptone broth to the desired concentrations including 128.0, 64.0, 32.0, 16.0, 8.0, 4.0, 2.0, 1.0, 0.5, 0.25, 0.125, 0.06 and 0.03 μg/mL, and then placed respectively into each well and mixed thoroughly. After inoculation, the tested strains were incubated for 18 hours at a constant temperature of 35° C., and their growth levels were observed. The drug concentration with no microbial growth in the well was recorded as the lowest Minimal Inhibitory Concentration (MIC).

Serratia marcescens = Serratia marcescens ATCC 21074; for MIC: ATCC21074, read-out: Minimal Inhibitory Concentration (MIC)
Procedure: as §1, §2

Salmonella typhi = conditions: for Minimal Inhibitory Concentration (MIC): Salmonella typhi H901; for MIC: Salmonella enterica, TYPHI, read-out: Minimal Inhibitory Concentration (MIC)
Procedure: as §1, §2

Pseudomonas aeruginosa = conditions: for MIC: read-out: Minimal Inhibitory Concentration (MIC)
Procedure: as §1, §2

Citrobacter freundii = Citrobacter freundii ATCC 43864; for MIC: ATCC43864, read-out: Minimal Inhibitory Concentration (MIC)
Procedure: as §1, §2

Enterobacter aerogenes = Enterobacter aerogenes ATCC 13048; for MIC: Klebsiella aerogenes, ATCC13048, read-out: Minimal Inhibitory Concentration (MIC)
Procedure: as §1, §2

Enterobacter cloacae = conditions: for MIC: read-out: Minimal Inhibitory Concentration (MIC)
Procedure: as §1, §2

Proteus vulgaris = conditions: for Minimal Inhibitory Concentration (MIC): Proteus vulgaris ATCC 29905; for MIC: Proteus vulgaris, ATCC29905, Proteus vulgaris ATCC 29905, read-out: Minimal Inhibitory Concentration (MIC)
Procedure: as §1, §2

Proteus mirabilis = conditions: for Minimal Inhibitory Concentration (MIC): Proteus mirabilis ATCC 49565; for MIC: Proteus mirabilis, ATCC49565, Proteus mirabilis ATCC 49565, read-out: Minimal Inhibitory Concentration (MIC)
Procedure: as §1, §2

Providencia rettgeri = conditions: for Minimal Inhibitory Concentration (MIC): Providencia rettgeri ATCC 31052; for MIC: Providencia rettgeri, ATCC31052, Providencia rettgeri ATCC 31052, read-out: Minimal Inhibitory Concentration (MIC)
Procedure: as §1, §2

Klebsiella Pneumoniae = conditions: for MIC: Klebsiella pneumoniae, read-out: Minimal Inhibitory Concentration (MIC)
Procedure: as §1, §2

Acinetobacter baumannii = conditions: for MIC: Acinetobacter baumannii, read-out: Minimal Inhibitory Concentration (MIC)
Procedure: as §1, §2

Escherichia coli = conditions: for MIC: Escherichia coli, read-out: Minimal Inhibitory Concentration (MIC)
Procedure: as §1, §2

Shigella flexneri = Shigella flexneri ATCC 12022; for MIC: ATCC12022, read-out: Minimal Inhibitory Concentration (MIC)
Procedure: as §1, §2

[2] = Pseudomonas aeruginosa ATCC 27853
[3] = Enterobacter cloacae ATCC 43560
[4] = Enterobacter cloacae CDC1000654
[5] = Klebsiella Pneumoniae 09-20, mcr-1(+)
[6] = Klebsiella Pneumoniae 16-2, ESBLs(−)
[7] = Klebsiella Pneumoniae 16-14, ESBLs(+)
[8] = Klebsiella Pneumoniae ATCC 700603, ESBLs(+)
[9] = Klebsiella Pneumoniae ATCC BAA-2146, NDM-1(+)
[10] = Acinetobacter baumannii ATCC 19606
[11] = Escherichia coli 08-85, mcr-1(+)
[12] = Escherichia coli 13-43, mcr-1(+)
[13] = Escherichia coli 13-66, mcr-1(+)
[14] = Escherichia coli 16-1, ESBLs(+)
[15] = Escherichia coli 16-7, ESBLs(−)
[16] = Escherichia coli ATCC 25922, ESBLs(−)
[17] = Escherichia coli ATCC 35218, ESBLs(+)
[18] = Escherichia coli CDC1001728, NDM-1(+)
[19] = ATCC27853, Pseudomonas aeruginosa ATCC 27853
[20] = ATCC43560, Enterobacter cloacae ATCC 43560
[21] = ATCC700603, Klebsiella Pneumoniae ATCC 700603, ESBLs(+)
[22] = ATCCBAA2146, Klebsiella Pneumoniae ATCC BAA-2146, NDM-1(+)
[23] = Klebsiella Pneumoniae 17-R27, CRE
[24] = ATCC19606, Acinetobacter baumannii ATCC 19606
[25] = ATCC25922, Escherichia coli ATCC 25922, ESBLs(−)
[26] = ATCC35218, Escherichia coli ATCC 35218, ESBLs(+)
[27] = Escherichia coli 17-R28, CRE, NDM-1(+)

C=CCON=C(C(=O)NC1C(=O)N(OS(=O)(=O)O)C1(C)C)c1csc(N)n1 (stereo not shown) [Compound B-1]
8 µg/mL: Minimal Inhibitory Concentration (MIC) (Enterobacter cloacae; [4]) | Minimal Inhibitory Concentration (MIC) (Acinetobacter baumannii; Acinetobacter baumannii 16-33) | Minimal Inhibitory Concentration (MIC) (Acinetobacter baumannii; [10])
0.25 µg/mL: Minimal Inhibitory Concentration (MIC) (Salmonella typhi) | Minimal Inhibitory Concentration (MIC) (Enterobacter cloacae; [3]) | Minimal Inhibitory Concentration (MIC) (Escherichia coli; [14]) | Minimal Inhibitory Concentration (MIC) (Escherichia coli; [15])
≤0.03 µg/mL: Minimal Inhibitory Concentration (MIC) (Proteus vulgaris) | Minimal Inhibitory Concentration (MIC) (Providencia rettgeri)
1 µg/mL: Minimal Inhibitory Concentration (MIC) (Serratia marcescens) | Minimal Inhibitory Concentration (MIC) (Enterobacter aerogenes) | Minimal Inhibitory Concentration (MIC) (Klebsiella Pneumoniae; [5]) | Minimal Inhibitory Concentration (MIC) (Escherichia coli; [12]) | Minimal Inhibitory Concentration (MIC) (Escherichia coli; [13])
0.125 µg/mL: Minimal Inhibitory Concentration (MIC) (Proteus mirabilis)
16 µg/mL: Minimal Inhibitory Concentration (MIC) [1] | Minimal Inhibitory Concentration (MIC) (Pseudomonas aeruginosa; Pseudomonas aeruginosa PAO1) | Minimal Inhibitory Concentration (MIC) (Klebsiella Pneumoniae; [8])
32 µg/mL: Minimal Inhibitory Concentration (MIC) (Acinetobacter baumannii; Acinetobacter baumannii 16-16)
4 µg/mL: Minimal Inhibitory Concentration (MIC) (Klebsiella Pneumoniae; [9]) | Minimal Inhibitory Concentration (MIC) (Escherichia coli; [18])
0.5 µg/mL: Minimal Inhibitory Concentration (MIC) (Citrobacter freundii) | Minimal Inhibitory Concentration (MIC) (Klebsiella Pneumoniae; [6]) | Minimal Inhibitory Concentration (MIC) (Klebsiella Pneumoniae; [7]) | Minimal Inhibitory Concentration (MIC) (Escherichia coli; [11]) | Minimal Inhibitory Concentration (MIC) (Escherichia coli; [16]) | Minimal Inhibitory Concentration (MIC) (Escherichia coli; [17]) | Minimal Inhibitory Concentration (MIC) (Shigella flexneri)
64 µg/mL: Minimal Inhibitory Concentration (MIC) (Pseudomonas aeruginosa; [2])
>64 µg/mL: Minimal Inhibitory Concentration (MIC) (Pseudomonas aeruginosa; Pseudomonas aeruginosa 16-11)

CC1(C)[C@H](NC(=O)/C(=N\OC2(C(=O)O)CCCC2)c2csc(N)n2)C(=O)N1OS(=O)(=O)O [Compound A-3]
0.5 µg/mL: MIC (Serratia marcescens) | MIC (Salmonella typhi) | MIC (Enterobacter aerogenes) | MIC (Enterobacter cloacae; [20]) | MIC (Klebsiella Pneumoniae; [22]) | MIC (Klebsiella Pneumoniae; [7]) | MIC (Escherichia coli; [12]) | MIC (Escherichia coli; [15]) | MIC (Escherichia coli; [18])
4 µg/mL: MIC [1] | MIC (Pseudomonas aeruginosa; [19]) | MIC (Pseudomonas aeruginosa; Pseudomonas aeruginosa 16-11) | MIC (Enterobacter cloacae; [4])
0.06 µg/mL: MIC (Proteus mirabilis)
2 µg/mL: MIC (Pseudomonas aeruginosa; Pseudomonas aeruginosa PAO1) | MIC (Klebsiella Pneumoniae; [6])
≤ 0.03 µg/mL: MIC (Proteus vulgaris) | MIC (Providencia rettgeri)
32 µg/mL: MIC (Acinetobacter baumannii; [24]) | MIC (Acinetobacter baumannii; Acinetobacter baumannii 16-33)
1 µg/mL: MIC (Klebsiella Pneumoniae; [21])
> 64 µg/mL: MIC (Acinetobacter baumannii; Acinetobacter baumannii 16-16)
8 µg/mL: MIC (Escherichia coli; [27])
0.25 µg/mL: MIC (Citrobacter freundii) | MIC (Klebsiella Pneumoniae; [5]) | MIC (Klebsiella Pneumoniae; [23]) | MIC (Escherichia coli; [25]) | MIC (Escherichia coli; [26]) | MIC (Escherichia coli; [11]) | MIC (Escherichia coli; [13]) | MIC (Escherichia coli; [14]) | MIC (Shigella flexneri)

CC1(C)[C@H](NC(=O)/C(=N\OC2(C(=O)O)CCC2)c2csc(N)n2)C(=O)N1OS(=O)(=O)O [Compound A-2]
1 µg/mL: MIC (Pseudomonas aeruginosa; Pseudomonas aeruginosa PAO1) | MIC (Enterobacter aerogenes) | MIC (Klebsiella Pneumoniae; [21])
16 µg/mL: MIC (Acinetobacter baumannii; [24]) | MIC (Acinetobacter baumannii; Acinetobacter baumannii 16-33) | MIC (Escherichia coli; [27])
> 64 µg/mL: MIC (Acinetobacter baumannii; Acinetobacter baumannii 16-16)
0.5 µg/mL: MIC (Escherichia coli; [18])
2 µg/mL: MIC (Enterobacter cloacae; [4]) | MIC (Klebsiella Pneumoniae; [6])
0.12 µg/mL: MIC (Salmonella typhi) | MIC (Citrobacter freundii) | MIC (Enterobacter cloacae; [20]) | MIC (Klebsiella Pneumoniae; [5]) | MIC (Klebsiella Pneumoniae; [7]) | MIC (Escherichia coli; [25]) | MIC (Escherichia coli; [11]) | MIC (Escherichia coli; [12]) | MIC (Escherichia coli; [13]) | MIC (Escherichia coli; [15])
0.06 µg/mL: MIC (Escherichia coli; [26]) | MIC (Escherichia coli; [14])
≤ 0.03 µg/mL: MIC (Proteus vulgaris) | MIC (Proteus mirabilis) | MIC (Providencia rettgeri)
0.25 µg/mL: MIC (Serratia marcescens) | MIC (Klebsiella Pneumoniae; [22]) | MIC (Klebsiella Pneumoniae; [23]) | MIC (Shigella flexneri)
4 µg/mL: MIC [1] | MIC (Pseudomonas aeruginosa; [19]) | MIC (Pseudomonas aeruginosa; Pseudomonas aeruginosa 16-11)

C#CCON=C(C(=O)NC1C(=O)N(OS(=O)(=O)O)C1(C)C)c1csc(N)n1 (stereo not shown) [Compound B-2]
1 µg/mL: Minimal Inhibitory Concentration (MIC) (Enterobacter aerogenes) | Minimal Inhibitory Concentration (MIC) (Klebsiella Pneumoniae; [5]) | Minimal Inhibitory Concentration (MIC) (Klebsiella Pneumoniae; [7]) | Minimal Inhibitory Concentration (MIC) (Escherichia coli; [12]) | Minimal Inhibitory Concentration (MIC) (Escherichia coli; [13])
0.06 µg/mL: Minimal Inhibitory Concentration (MIC) (Proteus mirabilis)
16 µg/mL: Minimal Inhibitory Concentration (MIC) (Klebsiella Pneumoniae; [8])
>64 µg/mL: Minimal Inhibitory Concentration (MIC) (Pseudomonas aeruginosa; Pseudomonas aeruginosa 16-11) | Minimal Inhibitory Concentration (MIC) (Pseudomonas aeruginosa; [2])
0.5 µg/mL: Minimal Inhibitory Concentration (MIC) (Serratia marcescens) | Minimal Inhibitory Concentration (MIC) (Salmonella typhi) | Minimal Inhibitory Concentration (MIC) (Citrobacter freundii) | Minimal Inhibitory Concentration (MIC) (Enterobacter cloacae; [3]) | Minimal Inhibitory Concentration (MIC) (Klebsiella Pneumoniae; [6]) | Minimal Inhibitory Concentration (MIC) (Escherichia coli; [11]) | Minimal Inhibitory Concentration (MIC) (Escherichia coli; [15]) | Minimal Inhibitory Concentration (MIC) (Escherichia coli; [16]) | Minimal Inhibitory Concentration (MIC) (Shigella flexneri)
0.25 µg/mL: Minimal Inhibitory Concentration (MIC) (Escherichia coli; [14]) | Minimal Inhibitory Concentration (MIC) (Escherichia coli; [17])
4 µg/mL: Minimal Inhibitory Concentration (MIC) (Acinetobacter baumannii; Acinetobacter baumannii 16-33) | Minimal Inhibitory Concentration (MIC) (Acinetobacter baumannii; [10]) | Minimal Inhibitory Concentration (MIC) (Escherichia coli; [18])
≤0.03 µg/mL: Minimal Inhibitory Concentration (MIC) (Proteus vulgaris) | Minimal Inhibitory Concentration (MIC) (Providencia rettgeri)
32 µg/mL: Minimal Inhibitory Concentration (MIC) [1] | Minimal Inhibitory Concentration (MIC) (Pseudomonas aeruginosa; Pseudomonas aeruginosa PAO1) | Minimal Inhibitory Concentration (MIC) (Acinetobacter baumannii; Acinetobacter baumannii 16-16)
8 µg/mL: Minimal Inhibitory Concentration (MIC) (Enterobacter cloacae; [4]) | Minimal Inhibitory Concentration (MIC) (Klebsiella Pneumoniae; [9])
